The data set can be described thus: water solubility. It is filed as physicochemical. The note with it: in water (substance/water).

The term solubility denotes the concentration that dissolves in the medium under given conditions. Higher therefore signals much dissolved substance.

In the case of `NCCCCCC(=O)O` [6-aminocaproic acid], the solubility is more than 500 mg/mL.
